Results reported in publication PMC10396955, “2-Oxabicyclo[2.1.1]hexanes as saturated bioisosteres of the ortho-substituted phenyl ring” (Nature Chemistry, 2023).

Assays:
[1] = Chemical stability of carboxylic acids (acid, base, storage); format: physicochemical; settings: room temperature, one day
Excerpt: We also checked the chemical stability of three representative carboxylic acids, 1b, 19b and 22b (Table 2), because we suspected that some of them could decompose via a retro-Michael-type reaction. […] All products were crystalline solids, and we stored all of them in closed vials at room temperature on the shelf.

With `O=C(O)C1C2CC1(c1ccc(C(F)(F)F)cc1)CO2` (stereo not drawn) [Compound 19b] the melting point was 64 to 65 °C, the chemical stability ([1]; aqueous 1 M hydrochloric acid) was “did not lead to any decomposition” and the chemical stability ([1]; aqueous 1 M sodium hydroxide) was “did not lead to any decomposition”.
With `Cc1cncc(C23COC(C2)C3C(=O)O)c1` (stereo not drawn) [Compound 22b] the melting point was 204 to 205 °C, the chemical stability ([1]; aqueous 1 M hydrochloric acid) was “did not lead to any decomposition” and the chemical stability ([1]; aqueous 1 M sodium hydroxide) was “did not lead to any decomposition”.
